From patent US20250228832A1, “METHODS FOR TREATING DISORDERS AMELIORATED BY MUSCARINIC RECEPTOR ACTIVATION” (KARUNA THERAPEUTICS, INC., priority 2022, published 2025)
Like-named read-outs stand apart in the source and are kept apart here.

Key:
human M2 receptor = target: T1, human M2 receptor (Homo sapiens, UniProt P08172); assay: SPA GTP (GTPgS) binding curve shift assay, M2; type: biochemical; settings: M2
T1 sequence (P08172 1-466): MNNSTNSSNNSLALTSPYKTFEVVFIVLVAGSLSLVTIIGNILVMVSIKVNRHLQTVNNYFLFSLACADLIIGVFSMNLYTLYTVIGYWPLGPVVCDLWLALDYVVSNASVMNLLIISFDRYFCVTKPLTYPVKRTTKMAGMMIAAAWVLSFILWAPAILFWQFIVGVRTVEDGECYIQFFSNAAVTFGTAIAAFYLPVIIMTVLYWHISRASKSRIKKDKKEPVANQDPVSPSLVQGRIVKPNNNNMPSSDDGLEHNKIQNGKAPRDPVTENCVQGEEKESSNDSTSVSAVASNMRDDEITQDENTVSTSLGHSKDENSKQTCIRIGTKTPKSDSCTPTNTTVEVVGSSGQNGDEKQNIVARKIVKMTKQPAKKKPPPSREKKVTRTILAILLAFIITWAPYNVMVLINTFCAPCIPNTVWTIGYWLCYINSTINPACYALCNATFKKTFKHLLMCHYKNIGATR
Description: (§1) Membranes were prepared for GTPgS binding assays from CHO-K1 cells stably expressing human M2 or human M4 receptors. Cells were grown in 5-layer cell culture flasks. Cells were washed with 50 mL of PBS and then dissociated with 0.05% trypsin. Dissociated cells were then collected by centrifugation at 650×g for 8 min at 4° C. Pellets were rewashed in PBS by centrifugation and resuspended in 30 mL of 20 mM HEPES, 10 mM EDTA, pH 7.4. After sitting on ice for 30 min, membranes were collected by centrifugation at 50000×g for 15 min at 4° C., resuspended in 30 mL of 20 mM HEPES, 0.1 mM EDTA, pH 7.4, and collected again by centrifugation. Pellets were then washed twice by centrifugation in 30 mL of 20 mM HEPES, pH 7.4, and stored at −80° C. until the day of the assay. On the day of the assay, pellets were thawed on ice and resuspended in 1 mL of 20 mM HEPES, pH 7.4, 10 mM MgCl2, and 100 mM NaCl using Dounce homogenization.
(§2) According to Promega guidelines, membrane protein concentration was determined by BCA protein assay (Promega, Madison, WI).
(§3) On the day of the assay, serial dilutions of test PAM compounds were brought up in assay buffer (20 mM HEPES, 10 mM MgCl2; see Table 4 for NaCl concentrations) at four times the final assay concentration. […] of membrane homogenates (containing […] of membrane protein) were prepared in assay buffer supplemented with GDP at 4× final assay concentration (see Table 4 for GDP concentrations) and dispensed into 96 well polypropylene, U-bottom Greiner plates. Membrane plates were incubated for 10 min at room temperature with gentle shaking. Then, 25 μL of test compounds were added to assay plates. Plates were then incubated, with shaking, for an additional 10-15 min. Then, 25 μL of diluted agonists serially diluted in assay buffer at 4× final assay concentration was added to assay plates. Plates were then incubated, with shaking, for an additional 10-15 min. Next, […] of 0.4 nM ^35S-GTP (Perkin Elmer, Waltham, MA) in assay buffer was added to assay mixtures. The binding reaction was left on the shaker for 1 h at room temperature. Membranes in assay reactions were then transferred to GF/C filter plates (UniFilter, Perkin Elmer) and washed three times using FilterMate Harvester (Perkin Elmer) with cold assay buffer containing no GDP. Filter plates were then dried at 40° C. overnight, and […] of Beta Plate Scintillation liquid was added. Plates were top and bottom sealed before being read on the TopCount scintillation counter (Perkin Elmer, Waltham, MA).
(§4) Raw data for all assays was transmitted directly from plate readers into the Beacon database for processing. All assay plates contained positive and negative control wells for data normalization and scaling. […] All control wells contained DMSO at a final assay concentration that matched the test compound wells.
(§5) For GTPgS assays, the negative control wells were defined as 0% response. The highest response in a plate was scaled to 1, representing 100% response. Data from test compound wells was scaled to these controls and are reported as % control values. This was done to allow for subsequent GraphPad cooperativity analysis, setting the maximal response at no more than 1.

human M4 receptor = target: T2, human M4 receptor (Homo sapiens, UniProt P08173); assay: SPA GTP (GTPgS) binding curve shift assay, M4; type: biochemical
T2 construct: expressed in transfected cells
T2 sequence (P08173 1-479): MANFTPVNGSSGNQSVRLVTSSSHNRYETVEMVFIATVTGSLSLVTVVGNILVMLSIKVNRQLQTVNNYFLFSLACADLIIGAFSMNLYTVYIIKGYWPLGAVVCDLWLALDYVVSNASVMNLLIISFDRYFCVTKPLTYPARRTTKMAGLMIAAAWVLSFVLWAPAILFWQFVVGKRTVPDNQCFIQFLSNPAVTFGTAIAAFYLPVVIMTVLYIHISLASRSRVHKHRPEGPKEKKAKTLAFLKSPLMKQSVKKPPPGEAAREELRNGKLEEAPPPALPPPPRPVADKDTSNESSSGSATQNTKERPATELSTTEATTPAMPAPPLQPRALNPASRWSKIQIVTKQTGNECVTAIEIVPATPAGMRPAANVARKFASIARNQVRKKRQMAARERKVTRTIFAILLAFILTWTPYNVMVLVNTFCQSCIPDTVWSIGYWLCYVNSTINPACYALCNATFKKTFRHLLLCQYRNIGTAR
Description: as §1, §2, §3, §4, §5

[1] = Emraclidine concentration 41.2 nM, read-out: Emax
[2] = Emraclidine concentration 123 nM, read-out: Emax
[3] = Emraclidine concentration 370 nM
[4] = Emraclidine concentration 1110 nM, read-out: Emax
[5] = Emraclidine concentration 3330 nM, read-out: Emax
[6] = MK-4710 concentration 41.2 nM, read-out: Emax
[7] = MK-4710 concentration 123 nM, read-out: Emax
[8] = MK-4710 concentration 1110 nM, read-out: Emax
[9] = MK-4710 concentration 3330 nM, read-out: Emax

CC1OC2(CS1)CN1CCC2CC1 (centres unmarked) [cevimeline, Cevimeline, reference compound]
EC50 (human M2 receptor; Emraclidine concentration 0 nM): 2.1 µM | Emax (human M2 receptor; Emraclidine concentration 0 nM): 34.0% | Emax (human M2 receptor; [1]): 57% | Emax (human M2 receptor; [2]): 51.8% | Emax at […] (human M2 receptor; [3]): 48.6% | Emax (human M2 receptor; [4]): 51.4% | Emax (human M2 receptor; [5]): 69.6% | Emax at […] (human M2 receptor; Emraclidine concentration […]): 43.8% | α (cooperativity, affinity shift) (human M2 receptor; M4 PAM Emraclidine): 1.0 | β (cooperativity, efficacy shift) (human M2 receptor; M4 PAM Emraclidine): 21.1 | τ (agonist pharmacology) (human M2 receptor; M4 PAM Emraclidine): 0.0 | α (cooperativity, affinity shift) (human M2 receptor; M4 PAM MK-4710): 1.0 | β (cooperativity, efficacy shift) (human M2 receptor; M4 PAM MK-4710): 53.4 | τ (agonist pharmacology) (human M2 receptor; M4 PAM MK-4710): 0.0 | EC50 (human M2 receptor; MK-4710 concentration 0 nM): 2.26 µM | Emax (human M2 receptor; MK-4710 concentration 0 nM): 39.6% | Emax (human M2 receptor; [6]): 38.2% | Emax (human M2 receptor; [7]): 39% | Emax at […] (human M2 receptor; MK-4710 concentration 370 nM): 39.3% | Emax (human M2 receptor; [8]): 49.5% | Emax (human M2 receptor; [9]): 68.2% | Emax at […] (human M2 receptor; MK-4710 concentration […]): 42.1% | EC50 (human M4 receptor; Emraclidine concentration 0 nM): 1.3 µM | Emax (human M4 receptor; Emraclidine concentration 0 nM): 4.0% | Emax (human M4 receptor; [1]): 13.2% | Emax (human M4 receptor; [2]): 28% | Emax at […] (human M4 receptor; [3]): 49.2% | Emax (human M4 receptor; [4]): 73.3% | Emax (human M4 receptor; [5]): 86.3% | Emax at […] (human M4 receptor; Emraclidine concentration […]): 10.6% | α (cooperativity, affinity shift) (human M4 receptor; M4 PAM Emraclidine): 1.0 | β (cooperativity, efficacy shift) (human M4 receptor; M4 PAM Emraclidine): 57.2 | τ (agonist pharmacology) (human M4 receptor; M4 PAM Emraclidine): 0.4 | α (cooperativity, affinity shift) (human M4 receptor; M4 PAM MK-4710): 1.0 | β (cooperativity, efficacy shift) (human M4 receptor; M4 PAM MK-4710): 136.5 | τ (agonist pharmacology) (human M4 receptor; M4 PAM MK-4710): 0.1 | EC50 (human M4 receptor; MK-4710 concentration 0 nM): 3.01 µM | Emax (human M4 receptor; MK-4710 concentration 0 nM): 6.4% | Emax (human M4 receptor; [6]): 20.2% | Emax (human M4 receptor; [7]): 26.6% | Emax at […] (human M4 receptor; MK-4710 concentration 370 nM): 42.1% | Emax (human M4 receptor; [8]): 68.1% | Emax (human M4 receptor; [9]): 83.6% | Emax at […] (human M4 receptor; MK-4710 concentration […]): 14.4%
